The subject of assay [1] is cGMP levels in the striatum. Put plainly: Microdialysis PD: cGMP in striatal extracellular dialysate. In kind it is in vivo, mouse. The following applies: male R6/2. As to the method: Microdialysis PK/PD studies were conducted at Brains Online, Inc. (San Francisco, CA, USA)
Male R6/2 (CBA/C57Bl/6 strain, CAG 120) mice aged 7-8 weeks (20 - 30 g; The Jackson Laboratory, USA) were used for the experiments. The animals were group housed in plastic cages (3-4 animals / cage) and had access to food and water ad libitum. Experiments were conducted in accordance with the declarations of Helsinki and were approved by the Institutional Animal Care and Use Committee of the University of California, San-Francisco.
Mice were anesthetized using isoflurane (2%, 800 mL/min O2). Bupivacain/epinephrine was used for local anesthesia. Carprophen was used peri-/post-operative as analgesia. The animals were placed in a stereotaxic frame (Kopf instruments, USA), and microdialysis probes were inserted into the striatum. Coordinates for the tips of the probes were for striatum: […] (AP) = +0.8 mm to bregma, lateral (L) = -1.7 mm to midline and ventral (V) = -4.0 mm to dura, the toothbar was set at 0.0 mm (Paxinos and Franklin, 2001). […] After surgery animals were kept individually in cages and provided food and water ad libitum. Animals were fasted the night before the experiment.
Experiments were performed one day after surgery. On the day of the experiment, the probes of the animals were connected with flexible PEEK tubing to a microperfusion pump (Syringe pump UV 8301501, Univentor, Malta). MQ probes were perfused with aCSF containing 0.2% albumin at a flow rate of 0.10 µL/min. As the carrier flow, ultrapurified H2O was used at a flow rate of 0.70 µL/min. I-shaped probes were perfused with aCSF at a flow rate of 1.5 µL/min. Microdialysis samples were collected for 30-minute periods by an automated fraction collector (CMA 142, Sweden) into mini-vials. Samples originating from I-shaped probes were collected into mini-vials already containing 15 µL of 0.02 M formic acid. 10 µL of 0.02 M formic acid was added in the samples originating from MQ probes. […] Following compound administration, microdialysate samples continued to be collected for 240 min at 30 minute intervals. All dialysis samples were stored at -80 °C.
Concentrations of cGMP were determined by HPLC with tandem mass spectrometry (MS/MS) detection. Standard samples were prepared in artificial dialysate matrix, consisting of 3 parts (v/v) aCSF mixed with 1 part 0.02M formic acid in ultrapurified H2O. Final concentrations of standard samples were 0.02, 0.05, 0.1, 0.2, 0.5, 1, 2, 5 and 10 nM. Quality control (QC) samples were prepared independently. Final concentrations were 0.3 (QClow), 0.75 (QCmid) and 7.5 (QChigh) nM. […]
Treatment effects were evaluated among different drug concentrations and also compared to baseline, using two-way ANOVA for repeated measurements followed by Student-Newman-Keuls post-hoc test. […]

Assay [2] concerns PDE9. On the set-up: method as in PMID 9216839, PMID 17697115, PMID 10618442, PMID 8961086, PMID 7581878. The following applies: ref [12], [23], [25], [27], [28], read-out: previously reported potencies; cited from earlier work.

Results on one compound are retold here after publication PMC3923778 (PLoS Currents, 2014).

The structures appear in SMILES notation. Entries after “also recorded” stand apart in the source; their conditions may differ.

Consider `CN1C(=O)c2nc(Cc3ccc(C(F)(F)F)cc3)[nH]c2N2C1=N[C@H]1CCC[C@H]12` [SCH-51866, (+)-cis-5,6a,7,8,9,9a-hexahydro-2-[4-[trifluro-methyl]phenylmethyl]-5-methyl-cylopent[4,5]imidazo [2,1-b]purin-4(3H)one], for which the “Elevation in cGMP in extracellular dialysate over baseline” value is “not” in assay [1] (3 mg/kg po acute), “significantly elevated cGMP levels; also recorded: significant over baseline” in assay [1] (10 mg/kg po acute) and “significantly elevated cGMP levels; also recorded: significant over baseline” in assay [1] (30 mg/kg po acute). Moreover, in assay [1] (acute po), the “accumulation of cGMP versus dose” value is “increased dose-proportionally”. The IC50 in assay [2] was 44 µM.
